Patent US9695155B2, “Herbicidal substituted pyrimidinyloxy benzene compounds” (E. I. DU PONT DE NEMOURS AND COMPANY, priority 2013, dated 2017)

Tests used:
[1] = test system: velvetleaf; assay: Test C preemergence; assay type: in vivo, Abutilon theophrasti; settings: for Velvetleaf plant response rating: preemergence; for Plant response rating, Velvetleaf: Preemergence, 62 g ai/ha, scale 0 to 100, 0 no effect, 100 complete control
Procedure, shortened: (§1)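 Seeds were sown in loam–sand blend and sprayed preemergence, while plants at 1- to 4-leaf stage (2–18 cm) in peat-based medium received postemergence sprays; test chemicals were formulated in a non-phytotoxic solvent with surfactant. After 13–15 days in a greenhouse, injury was rated visually against controls, 0 (no effect) to 100 (complete control).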

[2] = test system: Italian ryegrass; assay: Test C preemergence; assay type: in vivo, Lolium multiflorum; settings: for Ryegrass, Italian plant response rating: preemergence; for Plant response rating, Ryegrass, Italian: Preemergence, 62 g ai/ha, scale 0 to 100, 0 no effect, 100 complete control
Procedure, shortened: as §1

[3] = test system: soybean; assay: Test C preemergence; assay type: in vivo, Glycine max; settings: for Soybean plant response rating: preemergence; for Plant response rating, Soybean: Preemergence, 62 g ai/ha, scale 0 to 100, 0 no effect, 100 complete control
Procedure, shortened: as §1

[4] = test system: large (Lg) crabgrass; assay: Test C preemergence; assay type: in vivo, Digitaria sanguinalis; settings: for Crabgrass, Large plant response rating: preemergence; for Plant response rating, Crabgrass, Large: Preemergence, 62 g ai/ha, scale 0 to 100, 0 no effect, 100 complete control
Procedure, shortened: as §1

[5] = test system: kochia; assay: Test A preemergence; assay type: in vivo, Kochia scoparia; settings: for Kochia plant response rating (0 to 100 scale): 125 g ai/ha
Procedure, shortened: (§2)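 Scoring: eye-based comparison with untreated controls, 0 for no effect through 100 for complete control, at about day 10. Treatments: directed soil spray preemergence; foliar spray postemergence on 2–10 cm plants at the one- to two-leaf stage. Medium: loam soil with sand.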

[6] = test system: ragweed; assay: Test A postemergence; assay type: in vivo, Ambrosia elatior
Procedure, shortened: as §2

[7] = test system: kochia; assay: Test A postemergence; assay type: in vivo, Kochia scoparia
Procedure, shortened: as §2

[8] = test system: pigweed; assay: Test C preemergence; assay type: in vivo, Amaranthus retroflexus; settings: for Pigweed plant response rating: preemergence; for Plant response rating, Pigweed: Preemergence, 62 g ai/ha, scale 0 to 100, 0 no effect, 100 complete control
Procedure, shortened: as §1

[9] = test system: galium; assay: Test A postemergence; assay type: in vivo, Galium aparine
Procedure, shortened: as §2

[10] = test system: oilseed rape; assay: Test C preemergence; assay type: in vivo, Brassica napus; settings: for Oilseed Rape plant response rating: preemergence; for Plant response rating, Oilseed Rape: Preemergence, 62 g ai/ha, scale 0 to 100, 0 no effect, 100 complete control
Procedure, shortened: as §1

[11] = test system: blackgrass; assay: Test C preemergence; assay type: in vivo, Alopecurus myosuroides; settings: for Blackgrass plant response rating: preemergence; for Plant response rating, Blackgrass: Preemergence, 62 g ai/ha, scale 0 to 100, 0 no effect, 100 complete control
Procedure, shortened: as §1

[12] = test system: johnsongrass; assay: Test C preemergence; assay type: in vivo, Sorghum halepense; settings: for Johnsongrass plant response rating: preemergence; for Plant response rating, Johnsongrass: Preemergence, 62 g ai/ha, scale 0 to 100, 0 no effect, 100 complete control
Procedure, shortened: as §1

[13] = test system: giant foxtail; assay: Test C preemergence; assay type: in vivo, Setaria faberii; settings: for Foxtail, Giant plant response rating: preemergence; for Plant response rating, Foxtail, Giant: Preemergence, 62 g ai/ha, scale 0 to 100, 0 no effect, 100 complete control
Procedure, shortened: as §1

[14] = test system: ragweed; assay: Test A preemergence; assay type: in vivo, Ambrosia elatior; settings: for Ragweed plant response rating (0 to 100 scale): 125 g ai/ha
Procedure, shortened: as §2

[15] = test system: waterhemp; assay: Test C preemergence; assay type: in vivo, Amaranthus rudis; settings: for Waterhemp plant response rating: preemergence; for Plant response rating, Waterhemp: Preemergence, 62 g ai/ha, scale 0 to 100, 0 no effect, 100 complete control
Procedure, shortened: as §1

[16] = test system: barnyardgrass; assay: Test C preemergence; assay type: in vivo, Echinochloa crus-galli; settings: for Barnyardgrass plant response rating: preemergence; for Plant response rating, Barnyardgrass: Preemergence, 62 g ai/ha, scale 0 to 100, 0 no effect, 100 complete control
Procedure, shortened: as §1

[17] = test system: Italian ryegrass; assay: Test A preemergence; assay type: in vivo, Lolium multiflorum; settings: for Ryegrass, Italian plant response rating (0 to 100 scale): 125 g ai/ha
Procedure, shortened: as §2

[18] = test system: wheat, winter; assay: Test C preemergence; assay type: in vivo, Triticum aestivum; settings: for Wheat plant response rating: preemergence; for Plant response rating, Wheat: Preemergence, 62 g ai/ha, scale 0 to 100, 0 no effect, 100 complete control
Procedure, shortened: as §1

[19] = test system: ragweed; assay: Test C preemergence; assay type: in vivo, Ambrosia elatior; settings: for Ragweed plant response rating: preemergence; for Plant response rating, Ragweed: Preemergence, 62 g ai/ha, scale 0 to 100, 0 no effect, 100 complete control
Procedure, shortened: as §1

[20] = 16 g ai/ha, scale 0 to 100 (0 no effect, 100 complete control)
[21] = 125 g ai/ha, scale 0 (no effect) to 100 (complete control)
[22] = 31 g ai/ha, 0 to 100 scale where 0 is no effect and 100 is complete control, visual, approximately 10 days
[23] = 31 g ai/ha, 0 to 100 scale, 0 no effect, 100 complete control
[24] = 125 g ai/ha, 0 to 100 scale, 0 no effect, 100 complete control
[25] = 500 g ai/ha, 0 to 100 scale where 0 is no effect and 100 is complete control

FC(F)Oc1cnn(-c2c(Cl)cccc2Oc2ncc(Cl)cn2)c1 [Compound 258]
Velvetleaf plant response rating [1, 20]: 80
Velvetleaf plant response rating [1, 21]: 100
Plant response rating, Velvetleaf [1]: 100
Ryegrass, Italian plant response rating [2, 20]: 0
Ryegrass, Italian plant response rating [2, 21]: 70
Plant response rating, Ryegrass, Italian [2]: 25
Soybean plant response rating [3, 20]: 35
Soybean plant response rating [3, 21]: 95
Plant response rating, Soybean [3]: 75
Crabgrass, Large plant response rating [4, 20]: 100
Crabgrass, Large plant response rating [4, 21]: 100
Plant response rating, Crabgrass, Large [4]: 100
Plant response rating, Kochia [5, 22]: 90
Kochia plant response rating (0 to 100 scale) [5]: 90
Plant response rating, Ragweed [6, 23]: 10
Plant response rating, Ragweed [6, 24]: 50
Plant response rating, Kochia [7, 23]: 90
Plant response rating, Kochia [7, 24]: 100
Pigweed plant response rating [8, 20]: 100
Pigweed plant response rating [8, 21]: 100
Plant response rating, Pigweed [8]: 100
Plant response rating, Galium [9, 23]: 70
Plant response rating, Galium [9, 24]: 90
Oilseed Rape plant response rating [10, 20]: 80
Oilseed Rape plant response rating [10, 21]: 100
Plant response rating, Oilseed Rape [10]: 100
Blackgrass plant response rating [11, 20]: 0
Blackgrass plant response rating [11, 21]: 90
Plant response rating, Blackgrass [11]: 90
Johnsongrass plant response rating [12, 20]: 5
Johnsongrass plant response rating [12, 21]: 90
Plant response rating, Johnsongrass [12]: 75
Foxtail, Giant plant response rating [13, 20]: 75
Foxtail, Giant plant response rating [13, 21]: 100
Plant response rating, Foxtail, Giant [13]: 100
Plant response rating, Ragweed [14, 22]: 0
Ragweed plant response rating (0 to 100 scale) [14]: 40
Waterhemp plant response rating [15, 20]: 100
Waterhemp plant response rating [15, 21]: 100
Plant response rating, Waterhemp [15]: 98
Barnyardgrass plant response rating [16, 20]: 45
Barnyardgrass plant response rating [16, 21]: 100
Plant response rating, Barnyardgrass [16]: 90
Plant response rating, Ryegrass, Italian [17, 22]: 0
Ryegrass, Italian plant response rating (0 to 100 scale) [17]: 10
Wheat plant response rating [18, 20]: 0
Wheat plant response rating [18, 21]: 25
Plant response rating, Wheat [18]: 5
Ragweed plant response rating [19, 20]: 0
Ragweed plant response rating [19, 21]: 90
Plant response rating, Ragweed [19]: 80

N#Cc1cn(-c2c(C#N)cccc2Oc2ncc(Cl)cn2)nn1 [Compound 273]
Velvetleaf plant response rating [1, 20]: 10
Velvetleaf plant response rating [1, 21]: 85
Plant response rating, Velvetleaf [1]: 85
Ryegrass, Italian plant response rating [2, 20]: 0
Ryegrass, Italian plant response rating [2, 21]: 60
Plant response rating, Ryegrass, Italian [2]: 0
Soybean plant response rating [3, 20]: 5
Soybean plant response rating [3, 21]: 65
Plant response rating, Soybean [3]: 40
Crabgrass, Large plant response rating [4, 20]: 90
Crabgrass, Large plant response rating [4, 21]: 100
Plant response rating, Crabgrass, Large [4]: 95
Kochia plant response rating (0 to 100 scale) [5]: 100
Kochia plant response rating [5, 25]: 100
Plant response rating, Ragweed [6, 24]: 40
Plant response rating, Ragweed [6, 25]: 90
Plant response rating, Kochia [7, 24]: 70
Plant response rating, Kochia [7, 25]: 100
Pigweed plant response rating [8, 20]: 55
Pigweed plant response rating [8, 21]: 100
Plant response rating, Pigweed [8]: 100
Plant response rating, Galium [9, 24]: 80
Plant response rating, Galium [9, 25]: 100
Oilseed Rape plant response rating [10, 20]: 0
Oilseed Rape plant response rating [10, 21]: 100
Plant response rating, Oilseed Rape [10]: 80
Blackgrass plant response rating [11, 20]: 0
Blackgrass plant response rating [11, 21]: 70
Plant response rating, Blackgrass [11]: 5
Johnsongrass plant response rating [12, 20]: 0
Johnsongrass plant response rating [12, 21]: 80
Plant response rating, Johnsongrass [12]: 55
Foxtail, Giant plant response rating [13, 20]: 0
Foxtail, Giant plant response rating [13, 21]: 90
Plant response rating, Foxtail, Giant [13]: 75
Ragweed plant response rating (0 to 100 scale) [14]: 70
Ragweed plant response rating [14, 25]: 80
Waterhemp plant response rating [15, 20]: 45
Waterhemp plant response rating [15, 21]: 100
Plant response rating, Waterhemp [15]: 98
Barnyardgrass plant response rating [16, 20]: 0
Barnyardgrass plant response rating [16, 21]: 85
Plant response rating, Barnyardgrass [16]: 25
Ryegrass, Italian plant response rating (0 to 100 scale) [17]: 20
Ryegrass, Italian plant response rating [17, 25]: 40
Wheat plant response rating [18, 20]: 0
Wheat plant response rating [18, 21]: 5
Plant response rating, Wheat [18]: 0
Ragweed plant response rating [19, 20]: 10
Ragweed plant response rating [19, 21]: 85
Plant response rating, Ragweed [19]: 55
